Laboratory results: patent US8877718B2, “Antiinfective and antitumoral compounds isolated from tropical lianas” (Julius-Maximilians-Universität Würzburg, priority 2008, dated 2014)

Tests used:
[1] = tested on: SU-DHL-4 (aggressive B cell lymphoma) cell line; assay: Cell viability, annexin V-FITC/PI flow cytometry, SU-DHL-4; assay type: cell-based; settings: human tumor cell line SU-DH-4 L (aggressive B cell lymphoma), 72 h incubation
Description: (§1) Both cell lines of aggressive B cell lymphoma (DOHH-2, SU-DHL-4) and the multiple myeloma cell line RPMI8226 were obtained from the German Collection of Microorganisms and Cell Cultures (DSMZ) (ACC 47, ACC 495, and ACC 402, Braunschweig, Germany). The cultivation of the multiple myeloma cell line INA-6 had been previously described (R. Burger, A. Guenther, F. Bakker, M. Schmalzing, S. Bernand, W. Baum, B. Duerr, G. M. Hocke, H. Steininger, E. Gebhart, M. Gramatzki, Hematol. J. 2001, 2, 42-53). Normal mononuclear blood cells from the peripheral blood of two healthy donors were isolated by Ficoll-Hypaque density gradient centrifugation. To assess the percentage of apoptotic and viable cell fractions, a human annexin V-FITC/PI staining kit (Bender MedSystems, Vienna, Austria) was used. Cells (inoculation: 50000 cells mL^−1; incubation: 72 h) were washed in PBS, incubated for 10 min in 100 ml binding buffer (10 mM HEPES/NaOH, pH 7.4, 140 mM NaCl, 2.5 mM CaCl2) containing 2.5 ml annexin V-FITC mix and 1 mg/ml propidium iodide (PI), subsequently diluted with 300 ml binding buffer and analyzed by flow cytometry (FACSCalibur/CELLQuest; Becton Dickinson, Heidelberg, Germany). Early apoptosis is characterized by a positive annexin V-FITC staining. Cells in a late apoptotic stage lose their membrane integrity and additionally incorporate PI. […]

[2] = tested on: INA-6 (multiple myeloma) cell line; assay: Cell viability, annexin V-FITC/PI flow cytometry, INA-6; assay type: cell-based; settings: human tumor cell line INA-6 (multiple myeloma); 72 h incubation
Description: as §1

[3] = tested on: DOHH-2 (aggressive B cell lymphoma) cell line; assay: Cell viability, annexin V-FITC/PI flow cytometry, DOHH-2; assay type: cell-based; settings: human tumor cell line DOHH-1-2 (aggressive B cell lymphoma), 72 h incubation
Description: as §1

[4] = tested on: RPMI8226 (multiple myeloma) cell line; assay: Cell viability, annexin V-FITC/PI flow cytometry, RPMI8226; assay type: cell-based; settings: RPMI-8226; human tumor cell line RPMI8226 (multiple myeloma); 72 h incubation
Description: as §1

[5] = tested on: normal peripheral mononuclear blood cells; assay: Cell viability, annexin V-FITC/PI flow cytometry, normal blood cells; assay type: cell-based, human; settings: FIG. 9; for toxicity against normal peripheral mononuclear blood cells: cells of two healthy donors; for 50% response (EC50) in primary mononuclear blood cells: within the preferred therapeutic concentration range
Description: Both cell lines of aggressive B cell lymphoma (DOHH-2, SU-DHL-4) and the multiple myeloma cell line RPMI8226 were obtained from the German Collection of Microorganisms and Cell Cultures (DSMZ) (ACC 47, ACC 495, and ACC 402, Braunschweig, Germany). The cultivation of the multiple myeloma cell line INA-6 had been previously described (R. Burger, A. Guenther, F. Bakker, M. Schmalzing, S. Bernand, W. Baum, B. Duerr, G. M. Hocke, H. Steininger, E. Gebhart, M. Gramatzki, Hematol. J. 2001, 2, 42-53). Normal mononuclear blood cells from the peripheral blood of two healthy donors were isolated by Ficoll-Hypaque density gradient centrifugation. To assess the percentage of apoptotic and viable cell fractions, a human annexin V-FITC/PI staining kit (Bender MedSystems, Vienna, Austria) was used. Cells (inoculation: 50000 cells mL^−1; incubation: 72 h) were washed in PBS, incubated for 10 min in 100 ml binding buffer (10 mM HEPES/NaOH, pH 7.4, 140 mM NaCl, 2.5 mM CaCl2) containing 2.5 ml annexin V-FITC mix and 1 mg/ml propidium iodide (PI), subsequently diluted with 300 ml binding buffer and analyzed by flow cytometry (FACSCalibur/CELLQuest; Becton Dickinson, Heidelberg, Germany). Early apoptosis is characterized by a positive annexin V-FITC staining. Cells in a late apoptotic stage lose their membrane integrity and additionally incorporate PI. Viable cells are negative for both, annexin V-FITC and PI. The optical density of the controls was equaled to 100%.

[6] = tested on: Leishmania donovani (MHOM-ET-67/L82 strain) amastigote forms; assay: Antiinfective effect against axenic amastigotes of Leishmania donovani (Alamar Blue fluorescence); assay type: cell-based; settings: for inhibition at 0.8 µg/mL: c = 0.8 μg/ml, read-out: Inhibition of cell growth (%) at c = 0.8 μg/ml; for inhibition at 4.8 µg/mL: c = 4.8 μg/ml, read-out: Inhibition of cell growth (%) at c = 4.8 μg/ml; for activity against Leishmania donovani (in words): summary of Table 6
Experimental: Amastigote forms of Leishmania donovani (MHOM-ET-67/L82 strain) were grown in axenic culture at 37° C. and pH 5.4 in SM medium (I. Cunningham, J. Protozool. 1977, 24, 325-329) supplemented with 10% fetal bovine serum. For the assay, amastigote forms were seeded into a microtiter plate containing two concentrations of each substance to be tested. After 72 h the dye Alamar Blue (Resazurin) was added to each culture, and the plate was incubated for two more hours. Fluorescence at 536/588 nm was measured using a microtiter plate fluorometer, and the fluorescence signal of each culture treated with a substance was compared to the fluorescence signal of untreated control cultures. The antileishmanial drug miltefosine served as a positive control.

[7] = Leishmania donovani, 72 h, axenic amastigotes

Structure (SMILES)	EC50 [1] [µM]	EC50 [2] [µM]	EC50 [3] [µM]	melting point [°C]	EC50 [4] [µM]	toxicity against normal peripheral mononuclear blood cells [5]	50% response (EC50) in primary mononuclear blood cells [5]	inhibition at 0.8 µg/mL [6, 7] [%]	inhibition at 4.8 µg/mL [6, 7] [%]	activity against Leishmania donovani (in words) [6]	inhibition at 0.22 µg/mL ([6]; Leishmania donovani, c = 0.22 μg/ml (positive control), 72 h, axenic amastigotes, read-out: Inhibition of cell growth (%)) [%]
CC1=C(O)C(=O)c2c(ccc(O)c2O)C1=O [Dioncoquinone B (1b), 3,5,6-trihydroxy-2-methyl-1,4-naphthoquinone]	7.6	11	9.4	216 to 217	18	non-toxic	neither for Dioncoquinone A (1a) or for Dioncoquinone B (1b) a 50% response was achieved	79.2	87.6	excellent	–
CCCCCCCCCCCCCCCCOP(=O)([O-])OCC[N+](C)(C)C [Miltefosine, miltefosine, reference compound]	–	–	–	–	–	–	–	–	–	–	53
COc1c2c(cc3c1C(=O)C(O)=C(C)C3=O)OCO2 [Ancistroquinone F (1e), 3-hydroxy-5-methoxy-2-methyl-6,7-methylenedioxy-1,4-naphthoquinone]	–	–	–	–	–	–	–	0.3	28.6	–	–
COc1ccc2c(c1OC)C(=O)C(O)=C(C)C2=O [Ancistroquinone C (1f), 3-Hydroxy-5,6-dimethoxy-2-methyl-1,4-naphthoquinone]	–	–	–	218	–	–	–	–	–	–	–
CC1=C(O)C(=O)c2c(O)c3c(c(O)c2C1=O)OCO3 [Ancistroquinone E (1d), 3,5,8-trihydroxy-2-methyl-6,7-methylenedioxy-1,4-naphthoquinone]	–	–	–	–	–	–	–	19.6	30.5	–	–
CC1=C(O)C(=O)c2c(ccc(O[C@@H]3OC(CO)[C@@H](O)[C@H](O)[C@H]3O)c2O)C1=O (stereo partly drawn) [Dioncoquinone A (1a), 3,5,6-trihydroxy-2-methyl-1,4-naphthoquinone-6-O-β-glucoside]	32	29	37	189	58	non-toxic	neither for Dioncoquinone A (1a) or for Dioncoquinone B (1b) a 50% response was achieved	49.6	80.3	excellent	–
COc1cc(O)c2c(c1OC)C(=O)C(O)=C(C)C2=O [Ancistroquinone D (1c), 3,8-dihydroxy-5,6-dimethoxy-2-methyl-1,4-naphthoquinone]	–	–	–	–	–	–	–	11.4	31.7	–	–
